Entries after “also recorded” stand apart in the source; their conditions may differ. Like-named read-outs stand apart in the source and are kept apart here.
Columns and labels:
[1] = target: T1, transketolase (Homo sapiens, UniProt P29401); experiment: transketolase activity in cell based assay (lysates of N3PT-treated cells, GAPDH-coupled NADH readout)
T1 construct: Cells were lysed by vortexing and cell extracts assayed for transketolase activity; endogenous in cells; other cell lines not specified
T1 sequence (P29401 1-623): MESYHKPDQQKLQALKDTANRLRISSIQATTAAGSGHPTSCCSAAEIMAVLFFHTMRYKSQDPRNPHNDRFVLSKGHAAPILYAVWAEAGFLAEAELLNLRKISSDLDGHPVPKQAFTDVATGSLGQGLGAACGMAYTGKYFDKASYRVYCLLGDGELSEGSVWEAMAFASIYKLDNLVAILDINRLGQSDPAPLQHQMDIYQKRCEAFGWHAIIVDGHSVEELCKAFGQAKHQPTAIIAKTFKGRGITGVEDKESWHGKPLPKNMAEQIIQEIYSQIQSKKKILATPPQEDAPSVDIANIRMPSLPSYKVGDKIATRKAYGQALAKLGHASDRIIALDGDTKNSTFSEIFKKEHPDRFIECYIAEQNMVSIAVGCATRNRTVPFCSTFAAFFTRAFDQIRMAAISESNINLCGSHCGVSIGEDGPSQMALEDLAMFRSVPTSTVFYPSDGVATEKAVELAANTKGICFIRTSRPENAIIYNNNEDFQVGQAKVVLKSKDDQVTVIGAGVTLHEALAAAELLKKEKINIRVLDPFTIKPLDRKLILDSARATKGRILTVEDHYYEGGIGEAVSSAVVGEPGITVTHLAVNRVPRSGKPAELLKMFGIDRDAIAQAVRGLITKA
Procedure: Human carcinoma cell lines, such as, but not restricted to, HCT116, HT1080, DLD-1, Rv22, MIA PA CA-2, HCT-15, and murine cell lines, CT26, 4T1 (all cell lines described are available from the ATCC), were cultured in standard conditions (37 C, 5% CO2) in DMEM media (10% FBS, 1% Penicillin-Streptomycin) and harvested at 60-80% confluency by trypsinization. Approximately 2 million cells were collected in an Eppendorf tube and washed 2 times (2×) with PBS by centrifugation and stored at −20° C. as cell pellets. Ice-cold lysis buffer (1 ml) (20 mM HEPES, pH 7.5, 1 mM EDTA, 0.2 g/l Triton X-100 and 0.2 g/L sodium deoxycholate, supplemented with 1 mM DTT and 1 mM PMSF just before use) was added to each cell pellet. Cells were lysed by vortexing and cell extracts assayed for transketolase activity at pH 7.5, by coupling a subsequent glyceraldehyde-3-phosphate dehydrogenase (GAPDH) reaction and measuring conversion of NAD to NADH (FIG. 1).
The assay was carried out as follows. […] of […] assay buffer containing final concentrations of 50 mM HEPES, 40 mM KCl, 2.5 mM MgCl2, 5 mM NaArsenate, 1 mM NAD, 2 unit/ml glyceraldehydes-3-phosphate dehydrogenase (GAPDH) was added to 80 μl of lysate. Reaction kinetics were monitored on a fluorescent plate reader to allow any possible background activity via GAPDH to burn out. Then 5 ul of substrate mix containing final concentrations of 0.5 mM ribose-5-phosphate and 0.5 mM xylulose-5-phosphate was added to initiate the reaction. The reaction kinetics were monitored using a fluorescent plate reader, and the slope of the initial linear range was recorded as the velocity of the reaction (FU/min).
TK, kGDH and PDH enzymes all utilize thiamine pyrophosphate (TPP) as a co-factor for their catalysis. Conventional cell culture media (e.g., DMEM, RPMI) have high levels of thiamine (12 μM and 3 μM, respectively). […]
Log-phase growing cells were trypsinized and resuspended in TDM. […] TK activities could be measured from ≧5000 cells in most cell lines tested. […]
Enzymatic inhibition was expressed as percent of control cells that were not treated with compounds. […]

[2] = overall animal weight and major organ weight of treated mice; assay type: in vivo, mouse; conditions: 200 mg/kg/day
Procedure: A mouse xenograft model was used to evaluate the efficacy of N3PT in modulating tumor growth. Cancer cells (HCT-116 Luc+, comprising a stably transfected luciferase gene) were injected subcutaneously (10^6 cells) into Balb C nude mice on both flanks on day 7 prior to treatment. Tumors were allowed to grow to palpable size from test day 0, defined as the start of a treatment regime. N3PT was injected ip (intraperitoneally) at a given regimen (e.g., 200 mg/kg/day) and tumor size monitored by luminance intensity from day 0-7, caliper measurement after day 7, and by weight at the end of study, after the animals were sacrificed. See, e.g., Wang and El-Deiry, Cancer Biol Ther. 2(2):196-202 (2003); Ray et al., Cancer Res. 63(6):1160-5 (2003); see also, e.g., U.S. Pat. Nos. 6,416,960; 6,596,257; and 6,217,847.

[3] = tested on: HCT116; experiment: inhibition of proliferation of HCT116 cells; assay type: cell-based, human; conditions: HCT116 colon carcinoma
Procedure: The ability of N3PT to inhibit proliferation of these cell lines was then tested. LAMA84 was the most sensitive to N3PT, displaying an IC50 of 0.3 μM. The other cell lines, HCT116 and K562, were less sensitive, displaying an IC50 of approximately 2 μM in both cases. LAMA84 also had the highest TK activity (per cell) among these three cancer lines.

With `Cc1ccc(C[n+]2csc(CCO)c2C)c(N)n1` [N3PT, 3-[(2-amino-6-methyl-3-pyridinyl)methyl]-5-(2-hydroxyethyl)-4-methyl thiazolium] the “duration of inhibition of cellular transketolase activity” value ([1]; cells treated two days, washed out, TK monitored days 3-7) was “long lasting; also recorded: persists for several days”, the IC50 ([1]; extracts from cells incubated with increasing concentrations of N3PT, read-out: IC50 transketolase (selectivity comparison, FIG. 9)) was 7 nM and the IC50 ([1]; production of glyceraldehyde-3-phosphate by transketolase, read-out: IC50 transketolase in cell assays) was 27 nM. The overall animal weight ([2]; day 0, 6 and 11) was “no effect on overall animal weight; also recorded: did not affect”, the “major organ weight (brain, heart, kidney, liver, lung, spleen)” value ([2]; day 11 post treatment) was “no effect on major organ weight; also recorded: did not affect” and the IC50 [3] was ~2000 nM.
